These results are taken from PubChem BioAssay (NCI).

Several values for one entry are separate records, joined by “and”; a condition that tells them apart may be missing. Equal values may be shown once.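 The compound was tested at five concentrations on cells cultured in 96-well plates, with a 48-hour exposure period. Abbreviation: GI50, concentration required for 50% inhibition of growth. TGI marks complete inhibition of growth.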

Test systems include KM20L2 colon; DMS 114 small cell lung; RXF 393 renal; DMS 273 small cell lung; CAKI-1 renal; UO-31 renal; 786-0 renal; MOLT-4 leukemia; EKVX NSCLC; UACC-257 melanoma; MDA-MB-231 breast.
What all share (experiment): NCI anticancer screen, dose series, 48 h

As for `CSc1ccc2c(cc1=O)[C@@H](NC(=O)c1cccc([N+](=O)[O-])c1)CCc1cc(O)c(O)c(O)c1-2`, the TGI is 56.5 µM in the experiment with KM20L2 colon; 60 µM in the experiment with DMS 114 small cell lung; above 100 µM in the experiment with RXF 393 renal; above 100 µM with DMS 273 small cell lung; above 100 µM in the experiment on CAKI-1 renal; above 100 µM in the experiment with UO-31 renal. Also, the TGI was above 100 µM in the experiment with 786-0 renal, 53.1 µM in the experiment on MOLT-4 leukemia, above 100 µM in the experiment with EKVX NSCLC and above 100 µM in the experiment on UACC-257 melanoma.
For the compound `NCCSSCc1ccccc1CSSCCN`, the TGI in the experiment with KM20L2 colon, with DMS 114 small cell lung, in the experiment with RXF 393 renal, in the experiment on DMS 273 small cell lung, with CAKI-1 renal and in the experiment on UO-31 renal was above 100 µM throughout. For the same compound, the TGI in the experiment on 786-0 renal, in the experiment with MOLT-4 leukemia, with EKVX NSCLC and in the experiment with UACC-257 melanoma was above 100 µM each time.
For `COC(=O)[C@@H]1c2cc3c(c(O)c2[C@@H](OC2OC(C)C(OC)C(C)(OC)C2OC)C[C@]1(C)O)C(=O)c1c(O)cc2c(c1C3=O)O[C@H]1O[C@]2(C)[C@H](O)[C@@H](N(C)C)[C@@H]1O` (some centres not stated), the GI50 in the experiment on KM20L2 colon was 0.0127 µM; with UO-31 renal, 0.21 µM; in the experiment with EKVX NSCLC, 0.103 µM; with UACC-257 melanoma, 0.0123 µM. The TGI is 0.00521 µM in the experiment with DMS 114 small cell lung; 0.0749 µM and 0.0594 µM in the experiment on RXF 393 renal; 0.0282 µM with DMS 273 small cell lung; 0.214 µM with MDA-MB-231 breast; 0.983 µM and 1.17 µM in the experiment on UO-31 renal; 2.1 µM in the experiment on 786-0 renal. The TGI was 0.229 µM and 0.0903 µM in the experiment on MOLT-4 leukemia; 0.0638 µM and 0.0472 µM with UACC-257 melanoma.
On to `N#C/C(=C\c1cc(O)cc(O)c1)C(N)=O`, for which the TGI in the experiment on KM20L2 colon, with DMS 114 small cell lung, with RXF 393 renal, with DMS 273 small cell lung, with CAKI-1 renal and with UO-31 renal was above 100 µM throughout. Also, the TGI in the experiment with 786-0 renal, in the experiment with MOLT-4 leukemia, in the experiment with EKVX NSCLC and with UACC-257 melanoma was above 100 µM throughout.
`O=C(CCC(=O)Nc1ccc(Cl)c(Cl)c1)Cc1nc2ccccc2o1`: the TGI in the experiment on KM20L2 colon, with DMS 114 small cell lung, in the experiment with RXF 393 renal, in the experiment with DMS 273 small cell lung, in the experiment with CAKI-1 renal and in the experiment with UO-31 renal was above 100 µM each time. Further, the TGI with 786-0 renal, with MOLT-4 leukemia, in the experiment with EKVX NSCLC and in the experiment on UACC-257 melanoma was above 100 µM throughout.
Regarding `O=C(C(=O)c1cc2ccccc2[nH]1)c1cc2ccccc2[nH]1`, the TGI with KM20L2 colon, in the experiment on DMS 114 small cell lung, with RXF 393 renal, in the experiment with DMS 273 small cell lung, with CAKI-1 renal and with UO-31 renal was above 347 µM in each case. For the same compound, the TGI in the experiment on 786-0 renal, with MOLT-4 leukemia, in the experiment on EKVX NSCLC and in the experiment with UACC-257 melanoma was above 347 µM in each case.
For the compound `CC1(C)OC2C(CCP(=O)(O)O)OC(c3nc(C(N)=O)cs3)C2O1` (configuration not stated), the TGI in the experiment on KM20L2 colon, in the experiment on DMS 114 small cell lung, in the experiment on RXF 393 renal, with DMS 273 small cell lung, with CAKI-1 renal and in the experiment with UO-31 renal was above 100 µM throughout. In addition, the TGI in the experiment with 786-0 renal, in the experiment on MOLT-4 leukemia, in the experiment on EKVX NSCLC and in the experiment with UACC-257 melanoma was above 100 µM each time.
For the compound `C=CSCCC(N)C(=O)O` (configuration not stated), the TGI in the experiment with KM20L2 colon, with DMS 114 small cell lung, in the experiment on RXF 393 renal, in the experiment with DMS 273 small cell lung, with CAKI-1 renal and with UO-31 renal was above 100 µM each time. Besides, the TGI with 786-0 renal, in the experiment on MOLT-4 leukemia, in the experiment on EKVX NSCLC and with UACC-257 melanoma was above 100 µM each time.
On to `CCOC(OC(C)=O)[C@@H]1C=C[C@H](C)N(c2ccc([N+](=O)[O-])cc2)O1` (some centres not stated), for which the TGI in the experiment with KM20L2 colon worked out at 34.3 µM; with DMS 114 small cell lung, 16.9 µM; in the experiment on RXF 393 renal, 22.4 µM; with DMS 273 small cell lung, 13.4 µM; with CAKI-1 renal, 24.3 µM; in the experiment on UO-31 renal it was 9.16 µM. In addition, the TGI is 7.23 µM in the experiment with 786-0 renal, 5.49 µM with MOLT-4 leukemia, 39 µM in the experiment with EKVX NSCLC and 26.9 µM with UACC-257 melanoma.
Take `COc1ccc(Cc2c3cc(O)c(=O)cc-3ccn2C)cc1`: the TGI with KM20L2 colon is above 100 µM; in the experiment on DMS 114 small cell lung, 62.4 µM; in the experiment with RXF 393 renal it was 73.7 µM; in the experiment with DMS 273 small cell lung, above 100 µM; in the experiment on CAKI-1 renal it was above 100 µM; with UO-31 renal, above 73 µM. Also, the TGI in the experiment on 786-0 renal is above 66.8 µM; with MOLT-4 leukemia, above 81 µM; in the experiment with EKVX NSCLC, above 100 µM; with UACC-257 melanoma, above 89.8 µM.
With `C=C(CCCCC)CN1CCCC1C(C)=O` (configuration not stated), the TGI in the experiment on KM20L2 colon was above 100 µM; in the experiment on DMS 114 small cell lung it was 42.8 µM; in the experiment on RXF 393 renal, above 95.7 µM; in the experiment with DMS 273 small cell lung, 53.1 µM; with CAKI-1 renal, above 92.3 µM; in the experiment on UO-31 renal it was above 100 µM. The TGI with 786-0 renal was above 100 µM; with MOLT-4 leukemia, 33 µM; in the experiment on EKVX NSCLC it was above 100 µM; in the experiment on UACC-257 melanoma it was above 73.3 µM.
Consider `C=CCNC(=O)NCCCCC(NC(C)=O)C(=O)NCc1ccccc1` (configuration not stated), for which the TGI with KM20L2 colon, in the experiment with DMS 114 small cell lung, in the experiment on RXF 393 renal, with DMS 273 small cell lung, with CAKI-1 renal and in the experiment with UO-31 renal was above 100 µM in each case. Also, the TGI in the experiment on 786-0 renal, in the experiment with MOLT-4 leukemia, with EKVX NSCLC and in the experiment on UACC-257 melanoma was above 100 µM throughout.
`COC(=O)c1cc2c(=O)n(C)c3ccccc3n2c1C(=O)OC`: the TGI in the experiment on KM20L2 colon, in the experiment on DMS 114 small cell lung, in the experiment on RXF 393 renal, with DMS 273 small cell lung, with CAKI-1 renal and in the experiment on UO-31 renal was above 100 µM each time. Moreover, the TGI with 786-0 renal was 50.3 µM; in the experiment with MOLT-4 leukemia it was above 100 µM; in the experiment on EKVX NSCLC it was 78.2 µM; in the experiment with UACC-257 melanoma, above 100 µM.
